From patent publication US11524966B1 (Valo Early Discovery, Inc., priority 2017, dated 2022)
pIC50: −log10 of the molar value.

Target: T1, USP25 (USP25-His6, Boston Biochem E-546) (Homo sapiens, UniProt Q9UHP3)
T1 construct: His6; purchased Boston Biochem E-546
T1 sequence (Q9UHP3 1-1055): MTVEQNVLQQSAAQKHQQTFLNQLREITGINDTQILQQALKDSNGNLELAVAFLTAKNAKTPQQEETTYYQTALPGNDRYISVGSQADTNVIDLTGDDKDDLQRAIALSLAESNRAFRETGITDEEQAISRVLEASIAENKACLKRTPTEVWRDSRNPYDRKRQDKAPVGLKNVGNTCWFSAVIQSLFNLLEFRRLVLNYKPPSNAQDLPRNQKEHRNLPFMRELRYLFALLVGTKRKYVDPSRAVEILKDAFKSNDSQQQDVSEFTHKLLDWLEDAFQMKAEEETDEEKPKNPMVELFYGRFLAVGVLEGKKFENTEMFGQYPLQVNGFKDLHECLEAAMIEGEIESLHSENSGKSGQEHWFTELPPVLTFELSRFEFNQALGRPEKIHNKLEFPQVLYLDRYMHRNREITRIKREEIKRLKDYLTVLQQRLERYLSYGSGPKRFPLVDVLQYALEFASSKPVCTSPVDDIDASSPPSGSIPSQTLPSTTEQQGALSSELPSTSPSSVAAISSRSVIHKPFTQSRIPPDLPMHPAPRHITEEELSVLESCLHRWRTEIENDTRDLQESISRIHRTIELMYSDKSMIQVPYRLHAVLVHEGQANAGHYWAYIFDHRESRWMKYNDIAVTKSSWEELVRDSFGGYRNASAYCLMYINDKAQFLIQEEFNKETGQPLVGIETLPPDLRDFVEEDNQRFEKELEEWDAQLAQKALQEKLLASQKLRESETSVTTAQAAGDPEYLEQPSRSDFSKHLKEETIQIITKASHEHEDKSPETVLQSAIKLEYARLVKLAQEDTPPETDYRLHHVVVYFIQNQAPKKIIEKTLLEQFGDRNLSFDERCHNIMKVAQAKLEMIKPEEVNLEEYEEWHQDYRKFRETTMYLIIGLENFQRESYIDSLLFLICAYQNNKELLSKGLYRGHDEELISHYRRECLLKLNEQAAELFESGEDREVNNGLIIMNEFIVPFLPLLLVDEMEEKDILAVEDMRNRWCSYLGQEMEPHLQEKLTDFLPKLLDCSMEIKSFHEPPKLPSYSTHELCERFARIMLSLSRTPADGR
Experiment: Ubiquitin-Rhodamine 110 Assay for USP25 Activity, Example A-2
Assay type: biochemical
Conditions: Ubiquitin-Rhodamine 110 assay, Example A-2; read-out: USP25 A-2 IC50 range
In short: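 USP25-His6 (75 pM) was preincubated with compound (10-point, 3-fold series, 25 μM to 1.3 nM) for 30 min in 20 mM Tris-HCl pH 8.0, 3 mM BME, 0.03% BGG, 0.01% Triton X-100. Ub-Rh110 (25 nM, <<Km) was then added for 45 min at room temperature, citric acid-stopped, and fluorescence read at 485/535 nm.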

Row | Compound | pIC50
1 | Cc1ccc2c(N)c(C(=O)N[C@H]3COc4cc(N5C[C@@H](N)[C@@]6(CCCO6)C5)ccc4C3)sc2n1 [Example 308, 3-amino-N-[(3R)-7-[(5R,9R)-9-amino-1-oxa-7-azaspiro[4.4]nonan-7-yl]-3,4-dihydro-2H-1-benzopyran-3-yl]-6-methylthieno[2,3-b]pyridine-2-carboxamide] | 5.70 to 6.70
2 | Cc1ccc2c(N)c(C(=O)N[C@H]3COc4cc(N5C[C@@H](N)[C@]6(CCCO6)C5)ccc4C3)sc2n1 [Example 309, 3-amino-N-[(3R)-7-[(5S,9R)-9-amino-1-oxa-7-azaspiro[4.4]nonan-7-yl]-3,4-dihydro-2H-1-benzopyran-3-yl]-6-methylthieno[2,3-b]pyridine-2-carboxamide] | 6.70 to 7.30
3 | Cc1ccc2c(N)c(C(=O)N[C@H]3COc4cc(N5C[C@H](N)[C@@]6(CCCO6)C5)ccc4C3)sc2n1 [Example 310, 3-amino-N-[(3R)-7-[(5R,9S)-9-amino-1-oxa-7-azaspiro[4.4]nonan-7-yl]-3,4-dihydro-2H-1-benzopyran-3-yl]-6-methylthieno[2,3-b]pyridine-2-carboxamide] | 5.70 to 6.70
4 | CN[C@H]1CN(c2ccc3c(n2)CC[C@H](NC(=O)c2sc4nc(C)ccc4c2N)C3)C[C@@H]1OC [Example 311, 3-amino-N-[(6S)-2-[(3S,4S)-3-methoxy-4-(methylamino)pyrrolidin-1-yl]-5,6,7,8-tetrahydroquinolin-6-yl]-6-methylthieno[2,3-b]pyridine-2-carboxamide] | < 5.70
5 | CN[C@H]1CN(c2ccc3c(n2)CC[C@H](NC(=O)c2sc4nc(C)cc(C)c4c2N)C3)C[C@@H]1OC [Example 312, 3-amino-N-[(6S)-2-[(3S,4S)-3-methoxy-4-(methylamino)pyrrolidin-1-yl]-5,6,7,8-tetrahydroquinolin-6-yl]-4,6-dimethylthieno[2,3-b]pyridine-2-carboxamide] | < 5.70
6 | CCOC[C@@H]1CN(c2ccc3c(c2)OC[C@H](NC(=O)c2sc4nc(C)ccc4c2N)C3)C[C@@H]1N [Example 313, 3-amino-N-[(3R)-7-[(3R,4R)-3-amino-4-(ethoxymethyl)pyrrolidin-1-yl]-3,4-dihydro-2H-1-benzopyran-3-yl]-6-methylthieno[2,3-b]pyridine-2-carboxamide] | 5.70 to 6.70
7 | CCOC[C@H]1CN(c2ccc3c(c2)OC[C@H](NC(=O)c2sc4nc(C)ccc4c2N)C3)C[C@H]1N [Example 314, 3-amino-N-[(3R)-7-[(3S,4S)-3-amino-4-(ethoxymethyl)pyrrolidin-1-yl]-3,4-dihydro-2H-1-benzopyran-3-yl]-6-methylthieno[2,3-b]pyridine-2-carboxamide] | 6.70 to 7.30
8 | CO[C@H]1CCN(c2ccc3c(c2)OC[C@H](NC(=O)c2sc4nc(C)cc(C)c4c2N)C3)C[C@@H]1N [Example 317, 3-amino-N-[(3R)-7-[(3S,4S)-3-amino-4-methoxypiperidin-1-yl]-3,4-dihydro-2H-1-benzopyran-3-yl]-4,6-dimethylthieno[2,3-b]pyridine-2-carboxamide] | 5.70 to 6.70
9 | CO[C@@H]1CCN(c2ccc3c(c2)OC[C@H](NC(=O)c2sc4nc(C)cc(C)c4c2N)C3)C[C@H]1N [Example 318, 3-amino-N-[(3R)-7-[(3R,4R)-3-amino-4-methoxypiperidin-1-yl]-3,4-dihydro-2H-1-benzopyran-3-yl]-4,6-dimethylthieno[2,3-b]pyridine-2-carboxamide] | 5.70 to 6.70
10 | Cc1cnc2c(N)c(C(=O)N[C@H]3CCc4cc(N5C[C@H](OC(C)C)[C@@H](N)C5)ccc4C3)sc2n1 [Example 319, 7-amino-N-[(2S)-6-[(3S,4S)-3-amino-4-(propan-2-yloxy)pyrrolidin-1-yl]-1,2,3,4-tetrahydronaphthalen-2-yl]-3-methylthieno[2,3-b]pyrazine-6-carboxamide] | < 5.70
11 | Cc1ccc2c(N)c(C(=O)N[C@H]3CCc4nc(N5C[C@H](OC(C)C)[C@@H](N)C5)ccc4C3)sc2n1 [Example 320] | < 5.70
12 | Cc1ccc2c(N)c(C(=O)N[C@H]3CCc4nc(N5C[C@H](N)[C@H](OC(C)C)C5)ccc4C3)sc2n1 [Example 321, 3-amino-N-[(6S)-2-[(3S,4R)-3-amino-4-(propan-2-yloxy)pyrrolidin-1-yl]-5,6,7,8-tetrahydroquinolin-6-yl]-6-methylthieno[2,3-b]pyridine-2-carboxamide] | < 5.70
13 | Cc1ccc2c(N)c(C(=O)N[C@H]3CCc4nc(N5C[C@@H](N)[C@@H](OC(C)C)C5)ccc4C3)sc2n1 [Example 322, 3-amino-N-[(6S)-2-[(3R,4S)-3-amino-4-(propan-2-yloxy)pyrrolidin-1-yl]-5,6,7,8-tetrahydroquinolin-6-yl]-6-methylthieno[2,3-b]pyridine-2-carboxamide] | < 5.70
14 | CCO[C@H]1CN(c2ccc3c(c2)OC[C@H](NC(=O)c2sc4nc(C)cc(C)c4c2N)C3)C[C@H]1N [Example 324, 3-amino-N-[(3R)-7-[(3R,4S)-3-amino-4-ethoxypyrrolidin-1-yl]-3,4-dihydro-2H-1-benzopyran-3-yl]-4,6-dimethylthieno[2,3-b]pyridine-2-carboxamide] | 5.70 to 6.70
15 | CO[C@@]1(C)CN(c2ccc3c(n2)OC[C@H](NC(=O)c2sc4nc(C)ccc4c2N)C3)C[C@@H]1N [Example 325, 3-amino-N-[(3R)-7-[(3S,4S)-4-amino-3-methoxy-3-methylpyrrolidin-1-yl]-2H,3H,4H-pyrano[2,3-b]pyridin-3-yl]-6-methylthieno[2,3-b]pyridine-2-carboxamide] | < 5.70
16 | CO[C@]1(C)CN(c2ccc3c(n2)OC[C@H](NC(=O)c2sc4nc(C)ccc4c2N)C3)C[C@H]1N [Example 326, 3-amino-N-[(3R)-7-[(3R,4R)-4-amino-3-methoxy-3-methylpyrrolidin-1-yl]-2H,3H,4H-pyrano[2,3-b]pyridin-3-yl]-6-methylthieno[2,3-b]pyridine-2-carboxamide] | < 5.70
17 | COC[C@H]1CN(c2ccc3c(n2)CC[C@H](NC(=O)c2sc4nc(C)ccc4c2N)C3)C[C@@H]1N [Example 327, 3-amino-N-[(6S)-2-[(3R,4S)-3-amino-4-(methoxymethyl)pyrrolidin-1-yl]-5,6,7,8-tetrahydroquinolin-6-yl]-6-methylthieno[2,3-b]pyridine-2-carboxamide] | 5.70 to 6.70
18 | COC[C@@H]1CN(c2ccc3c(n2)CC[C@H](NC(=O)c2sc4nc(C)ccc4c2N)C3)C[C@H]1N [Example 328, 3-amino-N-[(6S)-2-[(3S,4R)-3-amino-4-(methoxymethyl)pyrrolidin-1-yl]-5,6,7,8-tetrahydroquinolin-6-yl]-6-methylthieno[2,3-b]pyridine-2-carboxamide] | < 5.70
19 | Cc1ccc2c(N)c(C(=O)N[C@H]3CCc4nc(N5C[C@H]6NCCC(F)(F)[C@H]6C5)ccc4C3)sc2n1 [Example 329, N-[(6S)-2-[(4aS,7aS)-4,4-difluoro-octahydro-1H-pyrrolo[3,4-b]pyridin-6-yl]-5,6,7,8-tetrahydroquinolin-6-yl]-3-amino-6-methylthieno[2,3-b]pyridine-2-carboxamide] | 5.70 to 6.70
20 | Cc1ccc2c(N)c(C(=O)N[C@H]3CCc4nc(N5C[C@@H]6NCCC(F)(F)[C@@H]6C5)ccc4C3)sc2n1 [Example 330, N-[(6S)-2-[(4aR,7aR)-4,4-difluoro-octahydro-1H-pyrrolo[3,4-b]pyridin-6-yl]-5,6,7,8-tetrahydroquinolin-6-yl]-3-amino-6-methylthieno[2,3-b]pyridine-2-carboxamide] | < 5.70
21 | CN[C@H]1CN(c2ccc3c(n2)CC[C@H](NC(=O)c2sc4nc(C)ccc4c2N)C3)C[C@@]1(C)O [Example 331, 3-amino-N-[(6S)-2-[(3R,4S)-3-hydroxy-3-methyl-4-(methylamino)pyrrolidin-1-yl]-5,6,7,8-tetrahydroquinolin-6-yl]-6-methylthieno[2,3-b]pyridine-2-carboxamide] | < 5.70
22 | CN[C@@H]1CN(c2ccc3c(n2)CC[C@H](NC(=O)c2sc4nc(C)ccc4c2N)C3)C[C@]1(C)O [Example 332, 3-amino-N-[(6S)-2-[(3S,4R)-3-hydroxy-3-methyl-4-(methylamino)pyrrolidin-1-yl]-5,6,7,8-tetrahydroquinolin-6-yl]-6-methylthieno[2,3-b]pyridine-2-carboxamide] | < 5.70
